Here are results for eleven compounds from patent US12577226B2, “Compounds for treating Huntington's disease” (PTC THERAPEUTICS, INC., priority 2019, dated 2026).

Some results are limits rather than exact numbers.

The test relates to Endogenous Huntingtin Protein (capture with MW1 (expanded polyglutamine) or MAB2166 antibody). Kind of test: Endogenous Huntingtin Protein Assay (ELISA-based Meso Scale Discovery electrochemiluminescence assay). It is filed as cell-based. The conditions noted are these: MSD electrochemiluminescence platform. In short, it runs like this:
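MSD electrochemiluminescence sandwich immunoassay: plates coated with 1 μg/mL MW1 or MAB2166 capture antibody, samples incubated overnight at 4 °C. Detection with rabbit monoclonal #5656S then SULFO-TAG anti-rabbit (each 0.25 μg/mL, 1 h RT).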
`C[C@@H]1CN(c2ccc(-c3ncc(-c4ccc5ncnn5c4)cc3O)nn2)C[C@H](C)N1` [Compound 94, 2-{6-[(3R,5S)-3,5-dimethylpiperazin-1-yl]pyridazin-3-yl}-5-([1,2,4]triazolo[1,5-a]pyridin-6-yl)pyridin-3-ol and 2-{6-[(3S,5R)-3,5-dimethylpiperazin-1-yl]pyridazin-3-yl}-5-([1,2,4]triazolo[1,5-a]pyridin-6-yl)pyridin-3-ol] returned an IC50 of 500 to 1000 nM.

Compound `COc1cc(-c2cnc(-c3ccc(N4CCNC(C)C4)nn3)c(O)c2)cc2cn(C)nc12` (centres unmarked) [Compound 95, 5-(7-methoxy-2-methyl-2H-indazol-5-yl)-2-[6-(3-methylpiperazin-1-yl)pyridazin-3-yl]pyridin-3-ol] had an IC50 of at most 100 nM.

Regarding `COc1cc(-c2cnc(-c3ccc(N4C[C@@H](C)N[C@@H](C)C4)nn3)c(O)c2)ccn1` [Compound 96, 6-{6-[(3R,5S)-3,5-dimethylpiperazin-1-yl]pyridazin-3-yl}-2′-methoxy[3,4′-bipyridin]-5-ol and 6-{6-[(3S,5R)-3,5-dimethylpiperazin-1-yl]pyridazin-3-yl}-2′-methoxy[3,4′-bipyridin]-5-ol], the half-inhibitory concentration (IC50) fell in the range of 100 to 500 nM.

Compound `CC1CN(c2ccc(-c3ncc(-c4cc(F)c5nn(C)cc5c4)cc3O)nn2)CCN1` (centres unmarked) [Compound 97, 5-(7-fluoro-2-methyl-2H-indazol-5-yl)-2-[6-(3-methylpiperazin-1-yl)pyridazin-3-yl]pyridin-3-ol] came in with an IC50 of at most 100 nM.

With `Cn1cc2cc(-c3cnc(-c4ccc(N5CCNC6(CC6)C5)nn4)c(O)c3)cc(F)c2n1` [Compound 98, 2-[6-(4,7-diazaspiro[2.5]octan-7-yl)pyridazin-3-yl]-5-(7-fluoro-2-methyl-2H-indazol-5-yl)pyridin-3-ol], the IC50 is at most 100 nM.

`Cc1nc2ccc(-c3cnc(-c4ccc(N5C[C@@H](C)N[C@@H](C)C5)nn4)c(O)c3)cn2n1` [Compound 99, 2-{6-[(3R,5S)-3,5-dimethylpiperazin-1-yl]pyridazin-3-yl}-5-(2-methyl[1,2,4]triazolo[1,5-a]pyridin-6-yl)pyridin-3-ol and 2-{6-[(3S,5R)-3,5-dimethylpiperazin-1-yl]pyridazin-3-yl}-5-(2-methyl[1,2,4]triazolo[1,5-a]pyridin-6-yl)pyridin-3-ol] showed an IC50 of 100 to 500 nM.

In turn, `Cn1cc2cc(-c3cnc(-c4ccc(N5CCN(C6CC6)CC5)nn4)c(O)c3)cc(F)c2n1` [Compound 100, 2-[6-(4-cyclopropylpiperazin-1-yl)pyridazin-3-yl]-5-(7-fluoro-2-methyl-2H-indazol-5-yl)pyridin-3-ol] returned an IC50 of 100 to 500 nM.

Take `CN1CCN(c2ccc(-c3ncc(-c4cc(F)c5nn(C)cc5c4)cc3O)nn2)CC1` [Compound 101, 5-(7-fluoro-2-methyl-2H-indazol-5-yl)-2-[6-(4-methylpiperazin-1-yl)pyridazin-3-yl]pyridin-3-ol]: the IC50 was at most 100 nM.

On to `CC1(C)C[C@H](Oc2ccc(-c3ncc(-c4cn[nH]c4)cc3O)nn2)[C@H](F)C(C)(C)N1[O]` [Compound 102, [(3R,4S)-3-fluoro-4-({6-[3-hydroxy-5-(1H-pyrazol-4-yl)pyridin-2-yl]pyridazin-3-yl}oxy)-2,2,6,6-tetramethylpiperidin-1-yl]oxidanyl], for which the IC50 lay within 500 to 1000 nM.

In turn, `C[C@H]1CN(c2ccc(-c3ncc(-c4cc(F)c5nn(C)cc5c4)cc3O)nn2)CCN1` [Compound 103, 5-(7-fluoro-2-methyl-2H-indazol-5-yl)-2-{6-[(3S)-3-methylpiperazin-1-yl]pyridazin-3-yl}pyridin-3-ol] gave an IC50 of at most 100 nM.

Take `C[C@@H]1CN(c2ccc(-c3ncc(-c4cc(F)c5nn(C)cc5c4)cc3O)nn2)CCN1` [Compound 104, 5-(7-fluoro-2-methyl-2H-indazol-5-yl)-2-{6-[(3R)-3-methylpiperazin-1-yl]pyridazin-3-yl}pyridin-3-ol]: the IC50 is at most 100 nM.
